Test system: UM16 cell line
Assay: GSEA of Bru-seq data (hallmark, KEGG, GO pathways, transcription factors)
Format: cell-based
Design: ES KEGG_MISMATCH_REPAIR / ES KEGG_HUNTINGTONS_DISEASE / ES KEGG_ALZHEIMERS_DISEASE / ES KEGG_VIBRIO_CHOLERAE_INFECTION / NES KEGG_VIBRIO_CHOLERAE_INFECTION / ES KEGG_RIBOSOME / NES KEGG_RIBOSOME / NES KEGG_RNA_POLYMERASE: dose or concentration left out as unconfirmed
Excerpt: Consistent with this observation, there are also massive metabolite pathways influenced including starch and sucrose metabolism, glycolysis and gluconeogenesis, purine metabolism, pyrimidine metabolism, N-glycan biosynthesis, etc.

[1] = 5 μM, 4 hours, transcription factors
[2] = GO_AMIDE_BIOSYNTHETIC_PROCESS, 5 μM, 4 hours, FDR q-val 1.55E−04
[3] = GO_CYTOSOLIC_LARGE_RIBOSOMAL_SUBUNIT, 5 μM, 4 hours, FDR q-val 0
[4] = GO_CYTOSOLIC_PART, 5 μM, 4 hours, FDR q-val 0
[5] = GO_CYTOSOLIC_RIBOSOME, 5 μM, 4 hours, FDR q-val 0
[6] = GO_ESTABLISHMENT_OF_PROTEIN_LOCALIZATION_TO_ENDOPLASMIC_RETICULUM, 5 μM, 4 hours, FDR q-val 0
[7] = GO_LARGE_RIBOSOMAL_SUBUNIT, 5 μM, 4 hours, FDR q-val 0
[8] = GO_MATURATION_OF_SSU_RRNA, 5 μM, 4 hours, FDR q-val 6.60E−05
[9] = GO_MULTI_ORGANISM_METABOLIC_PROCESS, 5 μM, 4 hours, FDR q-val 0
[10] = GO_NCRNA_METABOLIC_PROCESS, 5 μM, 4 hours, FDR q-val 0
[11] = GO_NCRNA_PROCESSING, 5 μM, 4 hours, FDR q-val 0
[12] = GO_NUCLEAR_TRANSCRIBED_MRNA_CATABOLIC_PROCESS_NONSENSE_MEDIATED_DECAY, 5 μM, 4 hours, FDR q-val 3.62E−05
[13] = GO_NUCLEOLAR_PART, 5 μM, 4 hours, FDR q-val 0
[14] = GO_PEPTIDE_METABOLIC_PROCESS, 5 μM, 4 hours, FDR q-val 3.46E−05
[15] = GO_PRERIBOSOME, 5 μM, 4 hours, FDR q-val 0
[16] = GO_PROTEIN_LOCALIZATION_TO_ENDOPLASMIC_RETICULUM, 5 μM, 4 hours, FDR q-val 0
[17] = GO_RIBONUCLEOPROTEIN_COMPLEX_BIOGENESIS, 5 μM, 4 hours, FDR q-val 0
[18] = GO_RIBOSOMAL_SMALL_SUBUNIT_BIOGENESIS, 5 μM, 4 hours, FDR q-val 0
[19] = GO_RIBOSOMAL_SUBUNIT, 5 μM, 4 hours, FDR q-val 0
[20] = GO_RIBOSOME, 5 μM, 4 hours, FDR q-val 0
[21] = GO_RIBOSOME_BIOGENESIS, 5 μM, 4 hours, FDR q-val 0
[22] = GO_RRNA_BINDING, 5 μM, 4 hours, FDR q-val 0
[23] = GO_RRNA_METABOLIC_PROCESS, 5 μM, 4 hours, FDR q-val 0
[24] = GO_STRUCTURAL_CONSTITUENT_OF_RIBOSOME, 5 μM, 4 hours, FDR q-val 0
[25] = GO_TRANSLATIONAL_INITIATION, 5 μM, 4 hours, FDR q-val 0
[26] = GO_TRNA_PROCESSING, 5 μM, 4 hours, FDR q-val 3.79E−05
[27] = transcription factor set AAAYWAACM_HFH4_01, 5 μM, 4 hours, FDR q-val 0.013
[28] = transcription factor set AP4_Q5, 5 μM, 4 hours, FDR q-val 0.043
[29] = transcription factor set ATF1_Q6, 5 μM, 4 hours, FDR q-val 0.053
[30] = transcription factor set FAC1_01, 5 μM, 4 hours, FDR q-val 0.043
[31] = transcription factor set FOXO1_01, 5 μM, 4 hours, FDR q-val 0.039
[32] = transcription factor set FOXO3——01, 5 μM, 4 hours, FDR q-val 0.015
[33] = transcription factor set FREAC2_01, 5 μM, 4 hours, FDR q-val 0.008
[34] = transcription factor set HFH3_01, 5 μM, 4 hours, FDR q-val 0.042
[35] = transcription factor set OCT_Q6, 5 μM, 4 hours, FDR q-val 0.051
[36] = transcription factor set RTAAACA_FREAC2_01, 5 μM, 4 hours, FDR q-val 0.025

In the case of CCOC(=O)[C@@H]1CCCN(S(=O)(=O)c2ccc(S(=O)(=O)N(CC)CC)cc2)C1 [DX2-201, ethyl (R)-1-((4-(N,N-diethylsulfamoyl)phenyl)sulfonyl)piperidine-3-carboxylate], the “ES E2F1_Q6” value [1] is reported as −0.355, the “ES E2F1_Q6_01” value [1] is reported as −0.352 and the “ES E2F_03” value [1] is reported as −0.360. The “ES E2F_Q6” value [1] was −0.352, the “ES GGAANCGGAANY_UNKNOWN” value [1] was −0.409 and the “ES MYCMAX_01” value [1] was −0.425. The “ES MYC_Q2” value [1] was −0.429, the “ES NMYC_01” value [1] was −0.350 and the “ES SGCGSSAAA_E2F1DP2_01” value [1] was −0.373. The “ES YY1_Q6” value [1] was −0.372, the “NES E2F1_Q6” value [1] was −1.568 and the “NES E2F1_Q6_01” value [1] was −1.578. For the same compound, the “NES E2F_03” value [1] was −1.597, the “NES E2F_Q6” value [1] was −1.565 and the “NES GGAANCGGAANY_UNKNOWN” value [1] was −1.661. For the same compound, the “NES MYCMAX_01” value [1] was −1.853, the “NES MYC_Q2” value [1] was −1.792 and the “NES NMYC_01” value [1] was −1.545. The “NES SGCGSSAAA_E2F1DP2_01” value [1] was −1.581, the “NES YY1_Q6” value [1] was −1.643 and the “ES KEGG_ALZHEIMERS_DISEASE” value (4 hours) was −0.3872. For the same compound, the “ES KEGG_HUNTINGTONS_DISEASE” value (4 hours) was −0.4035, the “ES KEGG_MISMATCH_REPAIR” value (4 hours) was −0.6381 and the “ES KEGG_RIBOSOME” value (4 hours) was −0.6266. For the same compound, the “ES KEGG_VIBRIO_CHOLERAE_INFECTION” value (4 hours) was −0.4430, the “NES KEGG_RIBOSOME” value (4 hours) was −2.4526 and the “NES KEGG_RNA_POLYMERASE” value (4 hours) was −1.9613. For the same compound, the “NES KEGG_VIBRIO_CHOLERAE_INFECTION” value (4 hours) was −1.4689, the “DNA repair and mismatch repair gene sets (Bru-seq)” value (4 hours of treatment) was “downregulated” and the “glycolysis pathway (Bru-seq)” value (4 hours of treatment) was “dramatically upregulated”. For the same compound, the “myc target gene sets and E2F target gene set (Bru-seq)” value (4 hours of treatment) was “downregulated”, the “oxidative phosphorylation (Bru-seq)” value (4 hours of treatment) was “significantly downregulated” and the ES [2] was −0.454. For the same compound, the NES [2] was −2.193, the ES [3] was −0.629 and the NES [3] was −2.298. The ES [4] was −0.537, the NES [4] was −2.371 and the ES [5] was −0.626. The NES [5] was −2.548, the ES [6] was −0.589 and the NES [6] was −2.417. For the same compound, the ES [7] was −0.585, the NES [7] was −2.298 and the ES [8] was −0.642. The NES [8] was −2.206, the ES [9] was −0.557 and the NES [9] was −2.388. The ES [10] was −0.528, the NES [10] was −2.591 and the ES [11] was −0.594. It also gave an NES [11] of −2.802, an ES [12] of −0.539 and an NES [12] of −2.231. It also gave an ES [13] of −0.630, an NES [13] of −2.294 and an ES [14] of −0.461. For the same compound, the NES [14] was −2.222, the ES [15] was −0.648 and the NES [15] was −2.348. It also gave an ES [16] of −0.563, an NES [16] of −2.329 and an ES [17] of −0.552. For the same compound, the NES [17] was −2.663, the ES [18] was −0.653 and the NES [18] was −2.377. It also gave an ES [19] of −0.581, an NES [19] of −2.491 and an ES [20] of −0.589. For the same compound, the NES [20] was −2.626, the ES [21] was −0.616 and the NES [21] was −2.869. For the same compound, the ES [22] was −0.650, the NES [22] was −2.367 and the ES [23] was −0.604. For the same compound, the NES [23] was −2.757, the ES [24] was −0.539 and the NES [24] was −2.395. It also gave an ES [25] of −0.590, an NES [25] of −2.521 and an ES [26] of −0.559. The NES [26] was −2.240, the ES [27] was 0.431 and the NES [27] was 1.896. It also gave an ES [28] of 0.393, an NES [28] of 1.743 and an ES (transcription factor set AP4_Q6, 5 μM, 4 hours, FDR q-val 0.078) of 0.377. The ES (transcription factor set AREB6_04, 5 μM, 4 hours, FDR q-val 0.098) was 0.346, the ES [29] was 0.383 and the NES [29] was 1.701. The ES (transcription factor set E47_01, 5 μM, 4 hours, FDR q-val 0.060) was 0.363, the ES [30] was 0.394 and the NES [30] was 1.751. It also gave an ES (transcription factor set FOXJ2_02, 5 μM, 4 hours, FDR q-val 0.090) of 0.364, an ES [31] of 0.384 and an NES [31] of 1.732. For the same compound, the ES (transcription factor set FOXO1_02, 5 μM, 4 hours, FDR q-val 0.007) was 0.459, the ES [32] was 0.417 and the NES [32] was 1.860. It also gave an ES (transcription factor set FOXO4_01, 5 μM, 4 hours, FDR q-val 0.014) of 0.464, an ES (transcription factor set FOXO4_02, 5 μM, 4 hours, FDR q-val 0.007) of 0.454 and an ES [33] of 0.440. For the same compound, the NES [33] was 1.964, the ES (transcription factor set FREAC3_01, 5 μM, 4 hours, FDR q-val 0.058) was 0.375 and the ES [34] was 0.401. The NES [34] was 1.733, the ES (transcription factor set HNF3_Q6, 5 μM, 4 hours, FDR q-val 0.073) was 0.392 and the ES (transcription factor set NKX62_Q2, 5 μM, 4 hours, FDR q-val 0.058) was 0.387. It also gave an ES (transcription factor set OCT1_Q5_01, 5 μM, 4 hours, FDR q-val 0.094) of 0.357, an ES [35] of 0.381 and an NES [35] of 1.697. For the same compound, the ES (transcription factor set PAX2_02, 5 μM, 4 hours, FDR q-val 0.061) was 0.374, the ES [36] was 0.344 and the NES [36] was 1.816. The ES (transcription factor set RYCACNNRNNRNCAG_UNKNOWN, 5 μM, 4 hours, FDR q-val 0.075) was 0.462, the ES (transcription factor set TTANWNANTGGM_UNKNOWN, 5 μM, 4 hours, FDR q-val 0.051) was 0.511 and the ES (transcription factor set YWATTWNNRGCT_UNKNOWN, 5 μM, 4 hours, FDR q-val 0.059) was 0.482.

— patent publication US20230212122A1, “MITOCHONDRIAL TARGETING COMPOUNDS FOR THE TREATMENT OF ASSOCIATED DISEASES” (The Regents of the University of Michigan, priority 2020, published 2023)
